Reference: US20200009135A1, “THERAPEUTIC APPLICATIONS OF MALT1 INHIBITORS” (MEDIVIR AB, priority 2017, published 2020)

Assays:
Format in all cases: cell-based
[1] = tested on: CD4+FoxP3+CD25+ cell induction; assay: Development of human T-regulatory cells from naive CD4 T cells (FoxP3+CD25+ induction); conditions: 3 donors, 0.4 μM, 0.4 μM and 4.0 μM
Experimental: Naïve CD4 T cell sorting and stimulation for regulatory T cell development A flat-bottom 48 well plate was coated with 250 μl of purified functional grade anti-human CD3 at 2 μg/ml in PBS. The plate was sealed and incubated at 37° C. for one hour. Peripheral blood mononuclear cells (PBMC) were isolated from human leucocyte reduction system cones by differential density centrifugation using Ficoll-PLUS (GE Healthcare). Cells were washed three times in RPMI+1% HI-FCS+1% penicillin/streptomycin (P/S) (1% RPMI), then resuspended at a concentration of 200×10^6/ml of 1% RPMI. An aliquot of cells was set aside for single colour controls, and the sample was stained at a dilution of 1:20 with anti-human CD4, anti-human CD45RA, anti-human CD25, and anti-human CD127 (antibodies from BioLegend and eBioscience) for 20 minutes on ice. Following the incubation, the stained PBMC were washed and resuspended at 50×10^6/ml in PBS+1% HI-FCS. Cells were sorted on a BD […] high speed cell sorter for the phenotype CD4+CD45RA+CD127+CD25-. Following the sort, cells were resuspended at 4×10^6/ml in pre-warmed cRPMI containing […] human IL-2 (final concentration 100 U/ml). […]
Staining Regulatory T Cell Cultures Induced regulatory T cell cultures were washed and counted. […]
CD4+ naïve T cells cultured for 10 days were analysed for their expression of FoxP3 and CD25. […]

[2] = tested on: CMV-specific (NLV+) CD8+ Teff cells expressing IFNγ; assay: Human whole blood loop assay with CMV lysate; conditions: 4 μM, 6 hours, alone and in combination with CMV lysate 1 μg/ml
Experimental: Each blood loop contained 2 mL of freshly taken human whole blood from HLA-A2+ and CMV+ donors.
Freshly drawn whole blood from healthy volunteers (2 mL) in a tube was incubated under rotation at 37° C. for 6 hours. […] After 2 hours Brefeldin-A was added to allow intra-cellular analysis of cytokines (IFNγ and TNFα). Antigen-specific CD8+ T-cells were identified by fluorescence-conjugated tetrameric complexes of HLA-A2 molecules loaded with the NLV peptide epitope ([…]) of CMV pp65,

[3] = Follow-up 5 day cell growth assay WSU-NHL (CC50); conditions: human, WSU-NHL cells

For `CO[C@@H](C)c1c(NC(=O)Nc2cnc(-n3nccn3)c(Cl)c2)cnc2cc(Cl)nn12` [Example 2, (S)-1-(5-chloro-6-(2H-1,2,3-triazol-2-yl)pyridin-3-yl)-3-(2-chloro-7-(1-methoxyethyl)pyrazolo[1,5-a]pyrimidin-6-yl)urea], the “generation of a Treg phenotype and function” value ([1]; highest degree of inhibition with 4.0 μM) was “inhibit”, the “CD4+FoxP3+CD25+ cell induction” value ([1]; IL-2+TGFβ, 10 days, highest concentration most effective) was “robust inhibition” and the “activated antigen-specific IFNγ+CD8+ T cells” value [2] was “increase”. It also gave a CC50 at 5 days [3] of 77 µM.
